From patent US9597310B2, “Indanyloxydihydrobenzofuranylacetic acids” (Boehringer Ingelheim International GmbH, priority 2012, dated 2017)

Target: human GPR40 receptor (Homo sapiens (Human), UniProt O14842)
Assay: IP1 accumulation measurements using the IPOne assay system
Type: cell-based
Details: 1321N1 cells stably expressing human GPR40 receptor, 1 h stimulation
Method: IP1 accumulation measurements using the IPOne assay system—1321N1 cells stably expressing human GPR40 receptor (Euroscreen, Belgium) are seeded 24 h before the assay in white 384-well plates in culture medium containing 10% FCS, 1% Na-Pyruvate and 400 μg/mL G418. IP1 is assayed according to the manufacturer's description (Cisbio Bioassays, France). In brief, the assay is started by substitution of the culture medium by stimulation buffer (Hepes 10 mM, CaCl2 1 mM, MgCl2 0.5 mM, KCl 4.2 mM, NaCl 146 mM, glucose 5.5 mM and LiCl 50 mM, pH 7.4). Cells are stimulated for 1 h at 37° C., 5% CO2 by addition of the compounds that are diluted in stimulation buffer containing LiCl. Assays are stopped by adding HTRF-conjugates (IP1-d2 and Anti-IP1 cryptate Tb) and lysis buffer, provided by the manufacturer. After an incubation time of 1 h at room temperature plates are measured using an EnVision™, Perkin Elmer. The obtained fluorescence ratios at 665/615 […] are then used to calculate the pEC50 values using Assay Explorer 3.3 Software (Accelrys, Inc.) by interpolation using an IP1 reference curve and subsequent sigmoidal curve fitting allowing for a variable hill slope.

Sequence of human GPR40 receptor (O14842 whole entry): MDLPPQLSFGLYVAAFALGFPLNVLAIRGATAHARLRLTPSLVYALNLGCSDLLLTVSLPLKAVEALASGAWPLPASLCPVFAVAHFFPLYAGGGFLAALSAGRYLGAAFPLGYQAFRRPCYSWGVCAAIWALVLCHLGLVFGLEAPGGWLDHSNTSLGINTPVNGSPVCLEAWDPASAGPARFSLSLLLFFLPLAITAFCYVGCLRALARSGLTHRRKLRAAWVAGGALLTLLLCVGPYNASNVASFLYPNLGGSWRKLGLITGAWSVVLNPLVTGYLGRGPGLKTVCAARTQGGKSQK

Structure (SMILES)	EC50
O=C(O)C[C@@H]1COc2cc(O[C@@H]3CCc4c(Oc5ccc(OCC6(O)CCOCC6)c(F)c5)ccc(F)c43)ccc21 [Example 37, [(S)-6-((R)-7-Fluoro-4-{3-fluoro-4-[(4-hydroxytetrahydro-2H-pyran-4-yl)-methoxy]phenoxy}-indan-1-yloxy)-2,3-dihydrobenzofuran-3-yl]-acetic acid]	8 nM
Cn1ccnc1-c1ccc(Oc2ccc(F)c3c2CC[C@H]3Oc2ccc3c(c2)OC[C@H]3CC(=O)O)cc1 [Example 38, ((S)-6-{(R)-7-Fluoro-4-[4-(1-methyl-1H-imidazol-2-yl)phenoxy]-indan-1-yloxy}-2,3-dihydrobenzofuran-3-yl)-acetic acid]	41 nM
CS(=O)(=O)CCCOc1cc(F)c(Oc2ccc(F)c3c2CC[C@H]3Oc2ccc3c(c2)OC[C@H]3CC(=O)O)cc1F [Example 39, [(S)-6-((R)-4-{2,5-Difluoro-4-[3-(methylsulfonyl)propoxy]phenoxy}-7-fluoro-indan-1-yloxy)-2,3-dihydrobenzofuran-3-yl]-acetic acid]	23 nM
Cc1cc(OCCC(C)(C)O)cc(C)c1Oc1ccc(F)c2c1CC[C@H]2Oc1ccc2c(c1)OC[C@H]2CC(=O)O [Example 40, ((S)-6-{(R)-7-Fluoro-4-[4-(3-hydroxy-3-methylbutoxy)-2,6-dimethylphenoxy]-indan-1-yloxy}-2,3-dihydrobenzofuran-3-yl)-acetic acid]	733 nM
CC(C)(O)CCCc1ccc(C#N)c(Oc2ccc(F)c3c2CC[C@H]3Oc2ccc3c(c2)OC[C@H]3CC(=O)O)c1 [Example 41, ((S)-6-{(R)-4-[2-Cyano-5-(4-hydroxy-4-methylpentyl)phenoxy]-7-fluoro-indan-1-yloxy}-2,3-dihydrobenzofuran-3-yl)-acetic acid]	85 nM
CC(C)(O)CCOc1ccc(C#N)c(Oc2ccc(F)c3c2CC[C@H]3Oc2ccc3c(c2)OC[C@H]3CC(=O)O)c1 [Example 42, ((S)-6-{(R)-4-[2-Cyano-5-(3-hydroxy-3-methylbutoxy)-phenoxy]-7-fluoro-indan-1-yloxy}-2,3-dihydrobenzofuran-3-yl)-acetic acid]	120 nM
N#Cc1cc(Oc2ccc(F)c3c2CC[C@H]3Oc2ccc3c(c2)OC[C@H]3CC(=O)O)ccc1O[C@@H]1CCOC1 [Example 43, ((S)-6-{(R)-4-[3-Cyano-4-((R)-tetrahydrofuran-3-yloxy)phenoxy]-7-fluoro-indan-1-yloxy}-2,3-dihydrobenzofuran-3-yl)-acetic acid]	18 nM
CC(C)(O)CCOc1ccc(Oc2ccc(F)c3c2CC[C@H]3Oc2ccc3c(c2)OC[C@H]3CC(=O)O)cc1C#N [Example 44, ((S)-6-{(R)-4-[3-Cyano-4-(3-hydroxy-3-methylbutoxy)phenoxy]-7-fluoro-indan-1-yloxy}-2,3-dihydrobenzofuran-3-yl)-acetic acid]	7 nM
CC(C)(O)CCOc1ccc(F)c(Oc2ccc(F)c3c2CC[C@H]3Oc2ccc3c(c2)OC[C@H]3CC(=O)O)c1 [Example 45, ((S)-6-{(R)-7-Fluoro-4-[2-fluoro-5-(3-hydroxy-3-methylbutoxy)phenoxy]-indan-1-yloxy}-2,3-dihydrobenzofuran-3-yl)-acetic acid]	29 nM
O=C(O)C[C@@H]1COc2cc(O[C@@H]3CCc4c(Oc5cc(OC6CCOCC6)ccc5F)ccc(F)c43)ccc21 [Example 46, ((S)-6-{(R)-7-Fluoro-4-[2-fluoro-5-(tetrahydro-2H-pyran-4-yloxy)phenoxy]-indan-1-yloxy}-2,3-dihydrobenzofuran-3-yl)-acetic acid]	62 nM
CC(C)(O)CCOc1ccc(Oc2ccc(F)c3c2CC[C@H]3Oc2ccc3c(c2)OC[C@H]3CC(=O)O)c(C#N)c1 [Example 47, ((S)-6-{(R)-4-[2-Cyano-4-(3-hydroxy-3-methylbutoxy)phenoxy]-7-fluoro-indan-1-yloxy}-2,3-dihydrobenzofuran-3-yl)-acetic acid]	8 nM
Cn1nccc1-c1ccc(Oc2ccc(F)c3c2CC[C@H]3Oc2ccc3c(c2)OC[C@H]3CC(=O)O)c(C#N)c1 [Example 48, ((S)-6-{(R)-4-[2-Cyano-4-(1-methyl-1H-pyrazol-5-yl)phenoxy]-7-fluoro-indan-1-yloxy)-2,3-dihydrobenzofuran-3-yl}-acetic acid]	9 nM
Cc1noc(C)c1-c1ccc(Oc2ccc(F)c3c2CC[C@H]3Oc2ccc3c(c2)OC[C@H]3CC(=O)O)c(C#N)c1 [Example 49, ((S)-6-{(R)-4-[2-Cyano-4-(3,5-dimethylisoxazol-4-yl)phenoxy]-7-fluoro-indan-1-yloxy}-2,3-dihydrobenzofuran-3-yl)-acetic acid]	17 nM
O=C(O)C[C@@H]1COc2cc(O[C@@H]3CCc4c(Oc5ccc(OC6CCOCC6)cc5F)ccc(F)c43)ccc21 [Example 50, ((S)-6-{(R)-7-Fluoro-4-[2-fluoro-4-(tetrahydro-2H-pyran-4-yloxy)phenoxy]-indan-1-yloxy}-2,3-dihydrobenzofuran-3-yl)-acetic acid]	4 nM
N#Cc1ccc(Oc2ccc(F)c3c2CC[C@H]3Oc2ccc3c(c2)OC[C@H]3CC(=O)O)cc1OC1CCOCC1 [Example 51, ((S)-6-{(R)-4-[4-Cyano-3-(tetrahydro-2H-pyran-4-yloxy)phenoxy]-7-fluoro-indan-1-yloxy}-2,3-dihydrobenzofuran-3-yl)-acetic acid]	29 nM
CC(C)(O)COc1cc(Oc2ccc(F)c3c2CC[C@H]3Oc2ccc3c(c2)OC[C@H]3CC(=O)O)ccc1C#N [Example 52, ((S)-6-{(R)-4-[4-Cyano-3-(2-hydroxy-2-methylproproxy)phenoxy]-7-fluoro-indan-1-yloxy}-2,3-dihydrobenzofuran-3-yl)-acetic acid]	31 nM
CC(C)(O)CCOc1ccc(Oc2ccc(F)c3c2CC[C@H]3Oc2ccc3c(c2)OC[C@H]3CC(=O)O)c(F)c1 [Example 53, ((S)-6-{(R)-7-Fluoro-4-[2-fluoro-4-(3-hydroxy-3-methylbutoxy)phenoxy]-indan-1-yloxy}-2,3-dihydrobenzofuran-3-yl)-acetic acid]	7 nM
Cc1noc(C)c1-c1ccc(Oc2ccc(F)c3c2CC[C@H]3Oc2ccc3c(c2)OC[C@H]3CC(=O)O)c(F)c1 [Example 54, ((S)-6-{(R)-4-[4-(3,5-Dimethylisoxazol-4-yl)-2-fluorophenoxy]-7-fluoro-indan-1-yloxy}-2,3-dihydrobenzofuran-3-yl)-acetic acid]	9 nM
Cn1nccc1-c1ccc(Oc2ccc(F)c3c2CC[C@H]3Oc2ccc3c(c2)OC[C@H]3CC(=O)O)c(F)c1 [Example 55, ((S)-6-{(R)-7-Fluoro-4-[2-fluoro-4-(1-methyl-1H-pyrazol-5-yl)phenoxy]-indan-1-yloxy}-2,3-dihydrobenzofuran-3-yl)-acetic acid]	6 nM
CC(C)(O)CCCc1ccc(Oc2ccc(F)c3c2CC[C@H]3Oc2ccc3c(c2)OC[C@H]3CC(=O)O)c(C#N)c1 [Example 56, ((S)-6-{(R)-4-[2-Cyano-4-(4-hydroxy-4-methylpentyl)phenoxy]-7-fluoro-indan-1-yloxy}-2,3-dihydrobenzofuran-3-yl)-acetic acid]	38 nM
O=C(O)C[C@@H]1COc2cc(O[C@@H]3CCc4c(Oc5cccc(N6CCCC6=O)c5)ccc(F)c43)ccc21 [Example 57, ((S)-6-{(R)-7-Fluoro-4-[3-(2-oxopyrrolidin-1-yl)phenoxy]-indan-1-yloxy}-2,3-dihydrobenzofuran-3-yl)-acetic acid]	4 nM
O=C(O)C[C@@H]1COc2cc(O[C@@H]3CCc4c(Oc5ccc(N6CCCC6=O)cc5)ccc(F)c43)ccc21 [Example 58, ((S)-6-{(R)-7-Fluoro-4-[4-(2-oxopyrrolidin-1-yl)phenoxy]-indan-1-yloxy}-2,3-dihydrobenzofuran-3-yl)-acetic acid]	18 nM
O=C(O)C[C@@H]1COc2cc(O[C@@H]3CCc4c(Oc5ccc(CN6CCCC6)cc5)ccc(F)c43)ccc21 [Example 59, ((S)-6-{(R)-7-Fluoro-4-[4-(pyrrolidin-1-ylmethyl)phenoxy]-indan-1-yloxy}-2,3-dihydrobenzofuran-3-yl)-acetic acid]	216 nM
N#CCc1ccc(Oc2ccc(F)c3c2CC[C@H]3Oc2ccc3c(c2)OC[C@H]3CC(=O)O)cc1 [Example 60, ((S)-6-{(R)-4-[4-(Cyanomethyl)phenoxy]-7-fluoro-indan-1-yloxy}-2,3-dihydrobenzofuran-3-yl)-acetic acid]	20 nM
N#CCCc1ccc(Oc2ccc(F)c3c2CC[C@H]3Oc2ccc3c(c2)OC[C@H]3CC(=O)O)cc1 [Example 61, ((S)-6-{(R)-4-[4-(2-Cyanoethyl)phenoxy]-7-fluoro-indan-1-yloxy}-2,3-dihydrobenzofuran-3-yl)-acetic acid]	13 nM
CC(C)(O)CCc1ccc(Oc2ccc(F)c3c2CC[C@H]3Oc2ccc3c(c2)OC[C@H]3CC(=O)O)c(C#N)c1 [Example 62, ((S)-6-{(R)-4-[2-Cyano-4-(3-hydroxy-3-methylbutyl)phenoxy]-7-fluoro-indan-1-yloxy}-2,3-dihydrobenzofuran-3-yl)-acetic acid]	12 nM
CN(C)C(=O)c1ccc(Oc2ccc(F)c3c2CC[C@H]3Oc2ccc3c(c2)OC[C@H]3CC(=O)O)cc1 [Example 63, ((S)-6-{(R)-4-[4-(Dimethylcarbamoyl)phenoxy]-7-fluoro-indan-1-yloxy}-2,3-dihydrobenzofuran-3-yl)-acetic acid]	22 nM
O=C(O)C[C@@H]1COc2cc(O[C@@H]3CCc4c(Oc5ccc(C(=O)N6CCOCC6)cc5)ccc(F)c43)ccc21 [Example 64, ((S)-6-{(R)-7-Fluoro-4-[4-(morpholine-4-carbonyl)phenoxy]-indan-1-yloxy}-2,3-dihydrobenzofuran-3-yl)-acetic acid]	27 nM
